Assay results: patent US9187472B2 (AbbVie Inc., priority 2012, dated 2015)

Assays:
NAMPT = NAMPT (Homo sapiens, UniProt P43490); assay: TR-FRET Binding Assay of NAMPT with PRPP; conditions: with 200 μM PRPP and 2.5 mM ATP; 2 nM NAMPT, 2 nM probe, 16 hours equilibration
Method in brief: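 TR-FRET probe-displacement binding with 2 nM NAMPT, 2 nM probe and 1 nM Tb-anti-His antibody, run in the presence of 200 μM PRPP and 2.5 mM ATP at 2% DMSO. Equilibrated 16 hours before reading so test compounds could undergo enzymatic modification.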

PC3 cells = assay: NAMPT Cell Proliferation Assay; type: cell-based; conditions: Homo sapiens, PC-3, 120 h, 5 days incubation, cell viability by Cell Titer Glo
Method in brief: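 PC3 cells were plated at 500 cells/well in RPMI with 10% heat-inactivated FBS, left to attach overnight, then given compounds in 10-fold dilutions from 10 μM to 1×10^−5 μM. After 5 days at 37° C and 5% CO2, viability was read by luminescence and IC50s came from sigmoidal fits of percent inhibition.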

[1] = biological target: NAMPT (human, recombinant, C-terminally His-tagged) (Homo sapiens, UniProt P43490); assay: Time-Resolved Fluorescence Resonance Energy Transfer (TR-FRET) Binding Assay of NAMPT; conditions: without substrates; 6.8 nM NAMPT, 200 nM probe, 3 hours equilibration
NAMPT (human, recombinant, C-terminally His-tagged), sequence (P43490 whole entry): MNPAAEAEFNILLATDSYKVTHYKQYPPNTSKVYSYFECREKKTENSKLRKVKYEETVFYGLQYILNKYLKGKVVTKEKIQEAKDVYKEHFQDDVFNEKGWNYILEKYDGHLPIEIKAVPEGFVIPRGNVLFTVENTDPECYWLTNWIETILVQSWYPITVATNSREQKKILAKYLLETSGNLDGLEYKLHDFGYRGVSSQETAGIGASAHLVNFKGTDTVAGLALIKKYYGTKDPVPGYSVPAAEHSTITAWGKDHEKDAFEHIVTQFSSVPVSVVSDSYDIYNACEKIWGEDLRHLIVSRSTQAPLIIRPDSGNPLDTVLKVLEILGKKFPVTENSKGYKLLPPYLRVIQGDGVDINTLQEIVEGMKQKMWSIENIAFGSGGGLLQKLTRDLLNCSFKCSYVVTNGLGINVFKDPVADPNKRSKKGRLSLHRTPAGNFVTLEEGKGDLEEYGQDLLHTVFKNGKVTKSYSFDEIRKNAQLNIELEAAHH
Method in brief: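 11-pt half-log compound series; final 6.8 nM NAMPT, 200 nM OG488 nicotinamide-competitive probe, 1 nM Tb-anti-His Ab, 2% DMSO, HEPES pH 7.5/NaCl/MgCl2/DTT/glycerol buffer. 3 h RT equilibration. Em520/Em495 ratio (Ex 337 nm), control-normalized, 4-parameter fit → IC50.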

NAMPT, sequence (P43490 whole entry): as above

Structure (SMILES)	IC50 (NAMPT) [µM]	IC50 (PC3 cells) [µM]	IC50 [1] [µM]
CC(C)OCC(=O)N1CCC(Oc2ccc(C(=O)NCc3ccc4nccn4c3)cc2)CC1 [Example 167, N-(imidazo[1,2-a]pyridin-6-ylmethyl)-4-({1-[(propan-2-yloxy)acetyl]piperidin-4-yl}oxy)benzamide]	0.00252	0.104	1.73
CCCC(=O)N1CCC(Oc2ccc(C(=O)NCc3ccc4nccn4c3)cc2)CC1 [Example 168, 4-[(1-butanoylpiperidin-4-yl)oxy]-N-(imidazo[1,2-a]pyridin-6-ylmethyl)benzamide]	0.000951	0.208	1.11
COCC(C)C(=O)N1CCC(Oc2ccc(C(=O)NCc3ccc4nccn4c3)cc2)CC1 (stereo not drawn) [Example 169, N-(imidazo[1,2-a]pyridin-6-ylmethyl)-4-{[1-(3-methoxy-2-methylpropanoyl)piperidin-4-yl]oxy}benzamide]	0.00425	0.0269	0.375
O=C(NCc1ccc2nccn2c1)c1ccc(OC2CCN(C(=O)CC(F)(F)F)CC2)cc1 [Example 170, N-(imidazo[1,2-a]pyridin-6-ylmethyl)-4-{[1-(3,3,3-trifluoropropanoyl)piperidin-4-yl]oxy}benzamide]	0.00225	0.604	3.36
O=C(NCc1ccc2nccn2c1)c1ccc(OC2CCN(C(=O)CC3CCOCC3)CC2)cc1 [Example 171, N-(imidazo[1,2-a]pyridin-6-ylmethyl)-4-{[1-(tetrahydro-2H-pyran-4-ylacetyl)piperidin-4-yl]oxy}benzamide]	0.00251	0.0447	2.17
O=C(NCc1ccc2nccn2c1)c1ccc(OC2CCN(C(=O)CC3CC3)CC2)cc1 [Example 172, 4-{[1-(cyclopropylacetyl)piperidin-4-yl]oxy}-N-(imidazo[1,2-a]pyridin-6-ylmethyl)benzamide]	0.00355	0.223	2.21
O=C(NCc1ccc2nccn2c1)c1ccc(OC2CCN(C(=O)CC3CCCO3)CC2)cc1 (stereo not drawn) [Example 173, N-(imidazo[1,2-a]pyridin-6-ylmethyl)-4-{[1-(tetrahydrofuran-2-ylacetyl)piperidin-4-yl]oxy}benzamide]	0.00124	0.0501	1.51
Cn1cc(CC(=O)N(CC2CCCO2)c2ncc(C(=O)NCc3ccc4nccn4c3)s2)cn1 (stereo not drawn) [Example 183, N-(imidazo[1,2-a]pyridin-6-ylmethyl)-2-{[(1-methyl-1H-pyrazol-4-yl)acetyl](tetrahydrofuran-2-ylmethyl)amino}-1,3-thiazole-5-carboxamide]	0.0018	0.063	1.05
Cc1nn(C)cc1CC(=O)N(CC1CCCO1)c1ncc(C(=O)NCc2ccc3nccn3c2)s1 (stereo not drawn) [Example 184, 2-{[(1,3-dimethyl-1H-pyrazol-4-yl)acetyl](tetrahydrofuran-2-ylmethyl)amino}-N-(imidazo[1,2-a]pyridin-6-ylmethyl)-1,3-thiazole-5-carboxamide]	0.00254	0.0651	4.34
Cn1cccc1CCC(=O)N(CC1CCCO1)c1ncc(C(=O)NCc2ccc3nccn3c2)s1 (stereo not drawn) [Example 189, N-(imidazo[1,2-a]pyridin-6-ylmethyl)-2-{[3-(1-methyl-1H-pyrrol-2-yl)propanoyl](tetrahydrofuran-2-ylmethyl)amino}-1,3-thiazole-5-carboxamide]	0.0111	0.0293	0.192
Cc1cc(CC(=O)N(CC2CCCO2)c2ncc(C(=O)NCc3ccc4nccn4c3)s2)nn1C (stereo not drawn) [Example 190, 2-{[(1,5-dimethyl-1H-pyrazol-3-yl)acetyl](tetrahydrofuran-2-ylmethyl)amino}-N-(imidazo[1,2-a]pyridin-6-ylmethyl)-1,3-thiazole-5-carboxamide]	0.00457	0.0149	0.4
O=C(NCc1ccc2nccn2c1)c1cnc(N(CC2CCCO2)C(=O)Cc2cscn2)s1 (stereo not drawn) [Example 191, N-(imidazo[1,2-a]pyridin-6-ylmethyl)-2-[(tetrahydrofuran-2-ylmethyl)(1,3-thiazol-4-ylacetyl)amino]-1,3-thiazole-5-carboxamide]	0.00609	0.0143	0.821
O=C(NCc1ccn2ccnc2c1)c1cnc(N(C[C@H]2CCCO2)C(=O)Cc2ccon2)s1 [Example 192, N-(imidazo[1,2-a]pyridin-7-ylmethyl)-2-{(1,2-oxazol-3-ylacetyl)[(2R)-tetrahydrofuran-2-ylmethyl]amino}-1,3-thiazole-5-carboxamide]	0.000242	0.00185	0.238

Further lines, results first:

IC50 (NAMPT) [µM]	IC50 (PC3 cells) [µM]	IC50 [1] [µM]	Structure (SMILES)
0.000169	0.00112	0.0283	CC(C)Cn1cc(-c2ccc(C(=O)NCc3ccn4ccnc4c3)s2)cn1 [Example 174, N-(imidazo[1,2-a]pyridin-7-ylmethyl)-5-[1-(2-methylpropyl)-1H-pyrazol-4-yl]thiophene-2-carboxamide]
0.0009	0.313	0.697	CC(C)C(=O)n1cc(-c2ccc(C(=O)NCc3ccc4nccn4c3)s2)cn1 [Example 175, N-(imidazo[1,2-a]pyridin-6-ylmethyl)-5-[1-(2-methylpropanoyl)-1H-pyrazol-4-yl]thiophene-2-carboxamide]
0.000414	0.00181	0.0606	CC(C)(O)Cn1cc(-c2ccc(C(=O)NCc3ccc4nccn4c3)s2)cn1 [Example 176, 5-[1-(2-hydroxy-2-methylpropyl)-1H-pyrazol-4-yl]-N-(imidazo[1,2-a]pyridin-6-ylmethyl)thiophene-2-carboxamide]
0.000169	0.00169	0.0201	CC1(Cn2cc(-c3ccc(C(=O)NCc4ccc5nccn5c4)s3)cn2)COC1 [Example 177, N-(imidazo[1,2-a]pyridin-6-ylmethyl)-5-{1-[(3-methyloxetan-3-yl)methyl]-1H-pyrazol-4-yl}thiophene-2-carboxamide]
0.000169	0.00185	0.0143	O=C(NCc1ccc2nccn2c1)c1ccc(-c2cnn(CC3CCC3)c2)s1 [Example 178, 5-[1-(cyclobutylmethyl)-1H-pyrazol-4-yl]-N-(imidazo[1,2-a]pyridin-6-ylmethyl)thiophene-2-carboxamide]
0.000445	0.00218	0.0581	O=C(NCc1ccc2nccn2c1)c1ccc(-c2cnn(CC3CCCCC3)c2)s1 [Example 179, 5-[1-(cyclohexylmethyl)-1H-pyrazol-4-yl]-N-(imidazo[1,2-a]pyridin-6-ylmethyl)thiophene-2-carboxamide]
0.000266	0.00912	0.584	CC[C@@H](O)Cn1cc(-c2ccc(C(=O)NCc3ccc4nccn4c3)s2)cn1 [Example 180, 5-{1-[(2R)-2-hydroxybutyl]-1H-pyrazol-4-yl}-N-(imidazo[1,2-a]pyridin-6-ylmethyl)thiophene-2-carboxamide]
0.000283	0.00775	0.349	CC(C)[C@@H]1COC(=O)N1c1ncc(C(=O)NCc2ccn3ccnc3c2)s1 [Example 181, N-(imidazo[1,2-a]pyridin-7-ylmethyl)-2-[(4R)-2-oxo-4-(propan-2-yl)-1,3-oxazolidin-3-yl]-1,3-thiazole-5-carboxamide]
0.0004	0.00137	0.139	CC(C)(O)Cn1cc(-c2ccc(C(=O)NCc3ccn4ccnc4c3)s2)cn1 [Example 182, 5-[1-(2-hydroxy-2-methylpropyl)-1H-pyrazol-4-yl]-N-(imidazo[1,2-a]pyridin-7-ylmethyl)thiophene-2-carboxamide]
0.00186	5.05	> 10	CC(C)[C@H]1COC(=O)N1c1ncc(C(=O)NCc2ccn3ccnc3c2)s1 [Example 185, N-(imidazo[1,2-a]pyridin-7-ylmethyl)-2-[(4S)-2-oxo-4-(propan-2-yl)-1,3-oxazolidin-3-yl]-1,3-thiazole-5-carboxamide]
0.000347	0.00236	0.0657	O=C(NCc1ccc2nccn2c1)c1ccc(-c2cnn(CC3CCCCO3)c2)s1 (stereo not drawn) [Example 186, N-(imidazo[1,2-a]pyridin-6-ylmethyl)-5-[1-(tetrahydro-2H-pyran-2-ylmethyl)-1H-pyrazol-4-yl]thiophene-2-carboxamide]
0.000172	0.0341	0.549	O=C(NCc1ccn2ccnc2c1)c1cnc(N2C(=O)OC[C@H]2COCc2ccccc2)s1 [Example 187, 2-{(4R)-4-[(benzyloxy)methyl]-2-oxo-1,3-oxazolidin-3-yl}-N-(imidazo[1,2-a]pyridin-7-ylmethyl)-1,3-thiazole-5-carboxamide]
0.00509	6.29	> 10	O=C(NCc1ccn2ccnc2c1)c1cnc(N2C(=O)OC[C@@H]2COCc2ccccc2)s1 [Example 188, 2-{(4S)-4-[(benzyloxy)methyl]-2-oxo-1,3-oxazolidin-3-yl}-N-(imidazo[1,2-a]pyridin-7-ylmethyl)-1,3-thiazole-5-carboxamide]
